In general, pest or weed control refers to the degree to which the test organism was suppressed or injured, in per cent. Read a low pest or weed control as weak suppression.

In patent publication US8536351B2, “2-aryl-5-heterocyclyl-cyclohexane-1,3,dione compounds and their use as herbicides” (Syngenta Crop Protection LLC, priority 2007, dated 2013) one finds pest or weed control data, which are given here for eleven compounds.

Common to all, as to type: in vivo
Assay [1] deals with Digitaria sanguinalis (DIGSA). The assay is described as follows: Pre-emergence activity, glasshouse pot test (100=total damage to plant; 0=no damage to plant). As to conditions: rate 500 g/ha, evaluated 19, 20 or 21 days after spraying. The method, then: (§1) Monocotyledonous and dicotyledonous test plants were sown in standard soil in pots. After cultivation for one day (pre-emergence) or after 10 days cultivation (post-emergence) under controlled conditions in a glasshouse, the plants were sprayed with an aqueous spray solution derived from the formulation of the technical active ingredient in 0.6 ml acetone and 45 ml formulation solution containing 10.6% Emulsogen EL (Registry number 61791-12-6), 42.2% N-methyl pyrrolidone, 42.2% dipropylene glycol monomethyl ether (Registry number 34590-94-8) and 0.2% X-77 (Registry number 11097-66-8). The test plants were then grown in a greenhouse under optimum conditions until, 14 or 15 days later for post-emergence and 19, 20 or 21 days for pre-emergence, the test was evaluated (100=total damage to plant; 0=no damage to plant). Alopecurus myosuroides (ALOMY), Avena fatua (AVEFA), Lolium perenne (LOLPE), Setaria faberi (SETFA), Digitaria sanguinalis (DIGSA), Echinochloa crus-galli (ECHCG) Pre-Emergence Activity

Assay [2] has as its system Avena fatua (AVEFA). Described as above. To be noted: rate 500 g/ha, evaluated 19, 20 or 21 days after spraying. The method, then: as §1
Assay [3] has as its system Setaria faberi (SETFA). The assay is described as above. To be noted: rate 500 g/ha, evaluated 19, 20 or 21 days after spraying. The method, then:
as §1

Assay [4] concerns Echinochloa crus-galli (ECHCG). Described as above. As to conditions: rate 500 g/ha, evaluated 19, 20 or 21 days after spraying. The method, then: as §1
In assay [5] the test system is Alopecurus myosuroides (ALOMY). The description is as above. As to conditions: rate 500 g/ha, evaluated 19, 20 or 21 days after spraying. The method, then:
as §1

Assay [6] relates to Lolium perenne (LOLPE). The description is as above. To be noted: rate 500 g/ha, evaluated 19, 20 or 21 days after spraying. The method, then:
as §1

The test system of assay [7] is Digitaria sanguinalis (DIGSA). The assay is described as follows: Post-emergence activity, glasshouse pot test (100=total damage to plant; 0=no damage to plant). To be noted: evaluated 14 or 15 days after spraying; for pest or weed control at 500 g/ha: rate 500 g/ha; for pest or weed control at 125 g/ha: rate 125 g/ha. The method, then:
as §1, with “Post-Emergence” for “Pre-Emergence”

For assay [8], the system named is Avena fatua (AVEFA). The description is as above. To be noted: 336 h, evaluated 14 or 15 days after spraying; for pest or weed control at 500 g/ha: rate 500 g/ha; for pest or weed control at 125 g/ha: rate 125 g/ha. The method, then:
as §1, with “Post-Emergence” for “Pre-Emergence”

Assay [9] concerns Setaria faberi (SETFA). The description is as above. As to conditions: evaluated 14 or 15 days after spraying; for pest or weed control at 500 g/ha: rate 500 g/ha; for pest or weed control at 125 g/ha: rate 125 g/ha. The method, then: as §1, with “Post-Emergence” for “Pre-Emergence”
In assay [10] the test system is Echinochloa crus-galli (ECHCG). The description is as above. To be noted: evaluated 14 or 15 days after spraying; for pest or weed control at 500 g/ha: rate 500 g/ha; for pest or weed control at 125 g/ha: rate 125 g/ha. The method, then:
as §1, with “Post-Emergence” for “Pre-Emergence”

For assay [11], the system named is Alopecurus myosuroides (ALOMY). The description is as above. As to conditions: 336 h, evaluated 14 or 15 days after spraying; for pest or weed control at 500 g/ha: rate 500 g/ha; for pest or weed control at 125 g/ha: rate 125 g/ha. The method, then: as §1, with “Post-Emergence” for “Pre-Emergence”
Assay [12] relates to Lolium perenne (LOLPE). The description is as above. To be noted: 336 h, evaluated 14 or 15 days after spraying; for pest or weed control at 500 g/ha: rate 500 g/ha; for pest or weed control at 125 g/ha: rate 125 g/ha. The method, then:
as §1, with “Post-Emergence” for “Pre-Emergence”

Consider `Cc1ccc(-c2ccc(Cl)cc2)cc1C1=C(O)CC(C2CCOC2)CC1=O` (stereo not drawn) [Compound T7], for which the pest or weed control at 500 g/ha in assay [1] was determined as 100%; in the assay on Avena fatua (AVEFA) [2] it was 30%; with Setaria faberi (SETFA) [3], 100%; in assay [4] it was 100%; in assay [5], 70%; in the assay on Lolium perenne (LOLPE) [6] it was 100%. Besides, the pest or weed control at 500 g/ha in assay [7] was found to be 100%; in the assay with Avena fatua (AVEFA) [8] it was 90%; in the assay with Setaria faberi (SETFA) [9], 100%; in assay [10], 100%; in assay [11], 90%; in the assay on Lolium perenne (LOLPE) [12], 80%.
For the compound `CCc1cc(C)cc(CC)c1C1=C(OC(=O)C(C)(C)C)CC(C2CCS(=O)(=O)CC2)CC1=O` (stereo not drawn) [Compound P3], the pest or weed control at 500 g/ha came out at 100% in assay [1]; 80% in the assay with Avena fatua (AVEFA) [2]; 90% in the assay with Setaria faberi (SETFA) [3]; 100% in [4]; 90% in assay [5]; 90% in the assay on Lolium perenne (LOLPE) [6]. For the same compound, the pest or weed control at 125 g/ha in assay [7] came out at 70%; with Avena fatua (AVEFA) [8], 30%; in the assay on Setaria faberi (SETFA) [9], 60%; in [10] it was 60%; in assay [11], 70%; with Lolium perenne (LOLPE) [12], 0%.
`CCc1cc(C)cc(CC)c1C1=C(O)CC(C2CCOCC2)CC1=O` (stereo not drawn) [Compound T2, 2-(2,6-diethyl-4-methylphenyl)-5-(tetrahydropyran-4-yl)cyclohexane-1,3-dione]: the pest or weed control at 500 g/ha in assay [1] is 100%; with Avena fatua (AVEFA) [2], 100%; with Setaria faberi (SETFA) [3], 100%; in [4], 90%; in assay [5] it was 100%; in the assay on Lolium perenne (LOLPE) [6], 100%. Also, the pest or weed control at 500 g/ha in [7] was determined as 100%; with Avena fatua (AVEFA) [8], 100%; in the assay with Setaria faberi (SETFA) [9], 90%; in [10], 100%; in assay [11], 90%; in the assay on Lolium perenne (LOLPE) [12] it was 90%.
`Cc1cc(C)c(C2=C(O)CC(C3CCCSC3)CC2=O)c(C)c1` (stereo not drawn) [Compound T14]: the pest or weed control at 500 g/ha in [1] stood at 90%; with Avena fatua (AVEFA) [2], 20%; in the assay with Setaria faberi (SETFA) [3], 90%; in [4], 70%; in assay [5], 60%; in the assay with Lolium perenne (LOLPE) [6], 70%. For the same compound, the pest or weed control at 500 g/ha in assay [7] amounted to 90%; in the assay with Avena fatua (AVEFA) [8], 30%; in the assay on Setaria faberi (SETFA) [9], 90%; in assay [10], 80%; in assay [11] it was 70%; in the assay with Lolium perenne (LOLPE) [12], 60%.
For `CCc1cc(C)cc(CC)c1C1=C(O)CC(C2CCOC2)CC1=O` (stereo not drawn) [Compound T4, 2-(2,6-diethyl-4-methylphenyl)-5-(tetrahydrofuran-3-yl)cyclohexane-1,3-dione], the pest or weed control at 500 g/ha in [1] was 90%; with Avena fatua (AVEFA) [2] it was 70%; with Setaria faberi (SETFA) [3], 100%; in [4], 100%; in assay [5], 100%; in the assay with Lolium perenne (LOLPE) [6] it was 100%. Further, the pest or weed control at 500 g/ha in assay [7] came out at 100%; with Avena fatua (AVEFA) [8], 100%; with Setaria faberi (SETFA) [9], 100%; in assay [10] it was 80%; in assay [11], 100%; with Lolium perenne (LOLPE) [12], 100%.
For the compound `CCc1cc(C)cc(C)c1C1=C(O)CC(C2CCOCC2)CC1=O` (stereo not drawn) [Compound T12], the pest or weed control at 500 g/ha is 100% in assay [1]; 90% in the assay on Avena fatua (AVEFA) [2]; 100% in the assay on Setaria faberi (SETFA) [3]; 100% in assay [4]; 90% in [5]; 100% in the assay on Lolium perenne (LOLPE) [6]. The pest or weed control at 500 g/ha in assay [7] was 100%; in the assay on Avena fatua (AVEFA) [8], 90%; in the assay with Setaria faberi (SETFA) [9], 100%; in assay [10], 100%; in [11] it was 90%; with Lolium perenne (LOLPE) [12], 90%.
Take `CCc1cc(C)cc(C)c1C1=C(O)CC(C2CCSCC2)CC1=O` (stereo not drawn) [Compound T21]: the pest or weed control at 500 g/ha is 100% in [1]; 70% in the assay with Avena fatua (AVEFA) [2]; 100% in the assay with Setaria faberi (SETFA) [3]; 100% in [4]; 40% in assay [5]; 40% with Lolium perenne (LOLPE) [6]. Also, the pest or weed control at 500 g/ha came out at 80% in [7]; 70% with Avena fatua (AVEFA) [8]; 90% in the assay with Setaria faberi (SETFA) [9]; 100% in assay [10]; 80% in [11]; 70% with Lolium perenne (LOLPE) [12].
In the case of `CCc1cc(C)cc(CC)c1C1=C(O)CC(C2CCCSC2)CC1=O` (stereo not drawn) [Compound T13], the pest or weed control at 500 g/ha was found to be 100% in [1]; 80% in the assay on Avena fatua (AVEFA) [2]; 100% in the assay on Setaria faberi (SETFA) [3]; 100% in assay [4]; 90% in [5]; 100% in the assay on Lolium perenne (LOLPE) [6]. Also, the pest or weed control at 500 g/ha is 90% in assay [7]; 100% in the assay with Avena fatua (AVEFA) [8]; 100% in the assay with Setaria faberi (SETFA) [9]; 90% in assay [10]; 100% in assay [11]; 100% in the assay on Lolium perenne (LOLPE) [12].
As for `CCc1cc(C)cc(C)c1C1=C(O)CC(C2CCOC2)CC1=O` (stereo not drawn) [Compound T11], the pest or weed control at 500 g/ha in [1] stood at 100%; in the assay on Avena fatua (AVEFA) [2], 70%; in the assay on Setaria faberi (SETFA) [3], 100%; in [4] it was 100%; in [5] it was 80%; in the assay on Lolium perenne (LOLPE) [6], 80%. The pest or weed control at 500 g/ha is 100% in [7]; 90% in the assay with Avena fatua (AVEFA) [8]; 100% in the assay on Setaria faberi (SETFA) [9]; 100% in [10]; 90% in assay [11]; 90% in the assay with Lolium perenne (LOLPE) [12].
`CCc1cc(C)cc(CC)c1C1=C(OC(C)=O)CC(C2CCCS(=O)(=O)C2)CC1=O` (stereo not drawn) [Compound P2]: the pest or weed control at 500 g/ha in assay [1] was 100%; in the assay on Avena fatua (AVEFA) [2], 100%; in the assay with Setaria faberi (SETFA) [3], 100%; in assay [4], 100%; in assay [5], 90%; in the assay on Lolium perenne (LOLPE) [6], 80%. For the same compound, the pest or weed control at 125 g/ha in assay [7] was 90%; in the assay on Avena fatua (AVEFA) [8], 20%; with Setaria faberi (SETFA) [9] it was 20%; in assay [10], 20%; in assay [11] it was 10%; with Lolium perenne (LOLPE) [12], 0%.
On to `Cc1cc(C)c(C2=C(O)CC(C3CCSCC3)CC2=O)c(C)c1` (stereo not drawn) [Compound T15], for which the pest or weed control at 500 g/ha was determined as 70% in [1]; 60% in the assay on Avena fatua (AVEFA) [2]; 90% with Setaria faberi (SETFA) [3]; 20% in [4]; 60% in [5]; 80% in the assay on Lolium perenne (LOLPE) [6]. Also, the pest or weed control at 500 g/ha in assay [7] came to 80%; in the assay on Avena fatua (AVEFA) [8], 20%; in the assay with Setaria faberi (SETFA) [9], 90%; in assay [10], 70%; in [11], 60%; in the assay with Lolium perenne (LOLPE) [12] it was 60%.
